Molecular target: T1, human TAS1R2-I486V (subunit alone) (Homo sapiens, UniProt Q8TE23, I486V)
T1 construct: expressed in transfected cells; host or cells: HEK293T-Gα16gust44
T1 sequence (Q8TE23 20-839 I486V): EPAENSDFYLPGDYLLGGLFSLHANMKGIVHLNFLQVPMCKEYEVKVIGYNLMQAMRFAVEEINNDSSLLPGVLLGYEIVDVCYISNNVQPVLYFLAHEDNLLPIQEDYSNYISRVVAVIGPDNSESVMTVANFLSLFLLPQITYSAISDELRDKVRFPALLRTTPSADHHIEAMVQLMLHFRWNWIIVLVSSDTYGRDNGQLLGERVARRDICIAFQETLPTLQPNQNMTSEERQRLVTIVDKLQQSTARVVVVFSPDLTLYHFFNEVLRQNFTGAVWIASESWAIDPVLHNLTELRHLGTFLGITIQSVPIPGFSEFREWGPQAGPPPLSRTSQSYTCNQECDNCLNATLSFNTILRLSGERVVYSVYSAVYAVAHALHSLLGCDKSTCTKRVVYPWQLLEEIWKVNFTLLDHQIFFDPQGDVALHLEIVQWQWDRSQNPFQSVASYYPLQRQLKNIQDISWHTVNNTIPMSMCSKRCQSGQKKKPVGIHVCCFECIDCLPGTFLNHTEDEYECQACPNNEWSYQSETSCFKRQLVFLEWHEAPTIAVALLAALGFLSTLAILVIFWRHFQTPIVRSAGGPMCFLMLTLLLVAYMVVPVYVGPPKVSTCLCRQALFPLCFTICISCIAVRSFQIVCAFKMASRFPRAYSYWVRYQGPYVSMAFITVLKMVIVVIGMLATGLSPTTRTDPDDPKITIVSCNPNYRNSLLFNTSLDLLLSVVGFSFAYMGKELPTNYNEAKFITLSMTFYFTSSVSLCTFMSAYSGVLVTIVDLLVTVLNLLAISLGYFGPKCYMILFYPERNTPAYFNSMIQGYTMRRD
Test: Calcium mobilisation assay, TAS1R2-I486V subunit alone
Assay type: cell-based
Description: The coding sequences for TAS1R2 and TAS1R3 were commercially synthesised, and the human codon was optimised for expression in human cells. The coding sequences of human TAS1R2 and TAS1R3 were subcloned and inserted into the mammalian expression vectors pcDNA6/myc-HisA and pcDNA4/myc-HisA (Invitrogen; Thermo Fisher Scientific; Illkirch, France) between the EcoRI and NotI restriction sites, generating the plasmids pcDNA6-TAS1R2 and pcDNA4-TAS1R3, respectively. To increase protein expression in mammalian cells, an upstream start codon was used, which was a sequence called MAX, corresponding to the QBI SP163 element also described in pcDNA4-HisMax (Invitrogen; Thermo Fisher Scientific; Illkirch, France). To measure the expression level of the receptor by immunohistochemistry, we used the FLAG sequence ([…]) in the C-terminal position, which encodes the FLAG tag epitope. […]
The HEK293T cells were kindly provided by Jay P. Slack (Givaudan Flavors Corporation; Cincinnati, OH, USA). […] The fluorescence intensity was measured for 90 s (excitation 488 nm, emission 510 nm) in an automated fluorometric FlexStation®3 Multi-Mode microplate reader (Molecular Devices; San Jose, CA, USA). […] The Ca^2+ changes were expressed as fractional changes in fluorescent light intensity: ΔF/F = (F − F0)/F0, where F was the fluorescent light intensity at each point, and F0 was the value of emitted fluorescent light prior to stimulus application. To calculate dose–response relationships, the changes in fluorescence upon stimulus application were averaged, mock-subtracted and baseline-corrected. […] The half-maximal effective concentrations (EC50 values) and maximal signal amplitudes were calculated using SigmaPlot software (version 15.0) (Systat Software; San Jose, CA, USA).
For in vitro calcium mobilisation assay performed on hTAS1R2-SNPs, hTAS1R3-SNPs and mTAS1R3-I60T, 6 to 7 concentrations were tested for each sweet compound, plus buffer alone. All concentration–receptor combinations were measured in duplicate, and each experiment was repeated at least 4 times (8 wells/concentration). […]

## C=C(C)[C@@H]1CC=C(/C=N/O)CC1 [Perillartine, perillartine]
  EC50: 124 ± 14.1 µM
  R1 = Variant EC50/WT EC50: 1.4
Maximal signal amplitude
  Max ΔF/F0: 0.39 ± 0.02

From publication PMC11945486, “TAS1R2/TAS1R3 Single-Nucleotide Polymorphisms Affect Sweet Taste Receptor Activation by Sweeteners: The SWEET Project” (Nutrients, 2025)
